US9656981B2, “Peripherally-acting cannabinoid receptor agonists for chronic pain” (The Regents of the University of California, priority 2012, dated 2017)
Entries after “also recorded” stand apart in the source; their conditions may differ.

What was measured:
Assay type in all cases: in vivo, rat
rats = assay: Catalepsy (ring) test of the tetrad
Description: Catalepsy (ring) test. Catalepsy was determined with a ring immobility test^154, modified for rats^139, 153. Rats are placed with their forepaws on a horizontal metal ring (12 cm diameter) at a height that allows their hindpaws to just touch the bench surface. Immobility is recorded as the time for the rat to move off the ring with a 100 s cutoff. Rats are tested before vehicle/drug injections and again at various times after injection.

[1] = tested on: sciatic nerve entrapment (SNE) neuropathy; assay: SNE neuropathy, mechanical allodynia (von Frey)
Description: The effectiveness of CBR agonists was tested for alleviating the painful symptoms of neuropathy induced by unilateral sciatic nerve entrapment (SNE)^131. The peripheral neuropathy induced by SNE is highly comparative to that of chronic constriction injury (CCI), which uses chromic gut suture materials instead of polyethylene cuffs^132. […] This increased excitability is at least in part attributable to injury-induced post-transcriptional transport of the voltage-gated sodium channel 1.8 (NaV1.8) mRNA, axonal accumulation of NaV1.8 mRNA, and its local protein translation leading to the increased NaV1.8 functional expression in injured nerve^136. The hyperexcitability and ectopic burst discharge of primary sensory neurons are widely considered to be the major contributors to pain symptomatology of peripheral neuropathy models. The SNE-induced mechanical allodynia effectively models the most common complaint of human neuropathy patients of dynamic mechanical allodynia. Behavioral measurements of mechanical sensitivity were conducted before and after induction of SNE as follows:
Rats are placed in a plastic-walled cage (10×20×13 cm) with a metal mesh floor (0.6×0.6 cm holes) and allowed to acclimate for 10 min. The amount of pressure (g) needed to evoke a hindpaw withdrawal response is measured 4 times on each paw separated by 30-s intervals using a von Frey-type digital meter (Model 1601C, IITC Instr.). Results of 4 tests/session are averaged for each paw.

[2] = Pharmacokinetic profiling: plasma, CSF and brain levels by LC-MS/MS
Description: Pharmacokinetic profiling of novel compounds is prerequisite to their clinical development. […] Plasma, cerebrospinal fluid (CSF), and brain samples were analyzed by LC-MS/MS and quantified using standard curves prepared from appropriate drug dilutions in fluids obtained from untreated animals.
Measurements of brain levels are a must for putative peripherally-restricted analogs. Total brain levels include drug partitioned into brain lipids+unbound drug in equilibrium with extracellular fluid. Therefore, cerebrospinal fluid (CSF)/plasma ratios are considered to be more precise estimates of brain penetration of a given drug because of the continuity of CSF with extracellular space^174. However, both measures are needed to confirm minimal CNS access and to compare with other reported peripherally-restricted CB1R ligands^110, 111. […] Plasma, brain and CSF samples were obtained at ˜75 min after PrNMI administration. Data presented as mean±SEM, n=3 rats.

CCCc1ccc(/C=C2\C=C(CCN3CCOCC3)c3ccccc32)c2ccccc12 [Compound 9, 4-{2-[(1E)-1-[(4-propylnaphthalen-1-yl)methylidene]-1H-inden-3-yl]ethyl} morpholine]
effect in the catalepsy assay (rats; 0.3 mg/kg, intraperitoneal, listed as 13339-145-35): no effect; also recorded: complete lack of effects
Catalepsy % change from pre-drug (0.3 mg/kg) at 1-3 hrs (rats; 1-3 hrs): 0%
effect on SNE-induced mechanical allodynia (ipsilateral hindpaw withdrawal thresholds) ([1]; 0.3 mg/kg, systemic injection): large, reversible increases
SNE Neuropath Assay-% return to pre-drug (0.3 mg/kg) contralateal threshold at 2-3 h ([1]; 0.3 mg/kg, 2-3 h): 110%
effect on contralateral hindpaw withdrawal thresholds ([1]; 0.3 mg/kg, hindpaw contralateral to SNE): small, but significant increases
effect on SNE-induced mechanical allodynia ([1]; 0.6 mg/kg): Suppression of SNE-induced mechanical allodynia
suppression of neuropathy symptoms after oral administration ([1]; 3 mg/kg, gavage): effective in suppressing neuropathy symptoms
anti-allodynic effects at the 24 hr time point after oral administration ([1]; 3 mg/kg, gavage, 24 hr): potent anti-allodynic effects
penetration into the CNS after systemic administration ([2]; plasma, brain and CSF samples): minimal penetration
Kp ([2]; rat, CSF and plasma, intraperitoneal, 0.3 mg/kg, i.p., ~75 min after administration, mean±SEM, n=3 rats): 0.001 ± 0.0005
Kp at 1.25 h ([2]; rat, brain and plasma, ip, 0.3 mg/kg, i.p., ~75 min after administration, mean±SEM, n=3 rats): 0.182 ± 0.043
